Reference: ChEMBL document CHEMBL4732091, “Design, synthesis and biological evaluation of novel thiosemicarbazone-indole derivatives targeting prostate cancer cells” (Eur J Med Chem, 2021)

Key:
PC-3 = assay: Antiproliferative activity against human PC-3 cells assessed as inhibition of cell proliferation measured after 72 hrs by MTT assay; assay type: functional, cell-based; details: PC-3, 72 h
ECa-109 cell line = assay: Antiproliferative activity against human ECa-109 cell line cells assessed as inhibition of cell proliferation measured after 72 hrs by MTT assay; assay type: functional, cell-based; details: ECa-109, 72 h
DU-145 = assay: Antiproliferative activity against human DU-145 cell line cells assessed as inhibition of cell proliferation measured after 72 hrs by MTT assay; assay type: functional, cell-based; details: DU-145, 72 h
MGC-803 = assay: Antiproliferative activity against human MGC-803 cell line cells assessed as inhibition of cell proliferation measured after 72 hrs by MTT assay; assay type: functional, cell-based; details: MGC-803, 72 h
MCF7 = assay: Antiproliferative activity against human MCF7 cell line cells assessed as inhibition of cell proliferation measured after 72 hrs by MTT assay; assay type: functional, cell-based; details: MCF7, 72 h
[1] = Cytotoxicity against human WPMY-1 cell line cells assessed as inhibition of cell proliferation measured after 72 hrs by MTT assay; assay type: cell-based; details: WPMY-1, 72 h

`COc1ccc2[nH]cc(CCNC(=O)c3ccc(NC(=S)N/N=C/c4ccc(O)cn4)cc3)c2c1` showed an IC50 (PC-3) of 2480 nM, an IC50 (ECa-109 cell line) of over 20 µM and an IC50 (DU-145) of 15.2 µM. It also gave an IC50 (MGC-803) of over 20 µM, an IC50 (MCF7) of over 20 µM and an IC50 [1] of over 20 µM.

With `COc1ccc2[nH]cc(CCNC(=O)c3ccc(NC(=S)N/N=C(\C)c4ccccn4)cc3)c2c1` the IC50 (PC-3) was 947 nM, the IC50 (ECa-109 cell line) was 6.48 µM and the IC50 (DU-145) was 5.88 µM. The IC50 (MGC-803) was 4.02 µM, the IC50 (MCF7) was 5.38 µM and the IC50 [1] was 4.51 µM.

Work on `Cc1ccc(/C=N/NC(=S)Nc2ccc(C(=O)NCCc3c[nH]c4ccccc34)cc2)nc1` yielded an IC50 (PC-3) of 241 nM, an IC50 (ECa-109 cell line) of 3.94 µM and an IC50 (DU-145) of 1.46 µM. For the same compound, the IC50 (MGC-803) was 7.02 µM, the IC50 (MCF7) was 7.11 µM and the IC50 [1] was 12.5 µM.

In the case of `NC(=S)N/N=C/c1ncccc1N` [TRIAPINE], the IC50 [1] is reported as 4.96 µM.

`Cc1ccc(/C=N/NC(=S)NCc2ccc(C(=O)NCCc3c[nH]c4ccccc34)cc2)nc1` showed an IC50 (PC-3) of 1420 nM, an IC50 (ECa-109 cell line) of 18.5 µM and an IC50 (DU-145) of 1.2 µM. It also gave an IC50 (MGC-803) of 4.85 µM, an IC50 (MCF7) of 8.62 µM and an IC50 [1] of 1.09 µM.

Compound `Cc1ncc(CO)c(/C=N/NC(=O)c2ccc(C(=O)NCCc3c(C)[nH]c4ccccc34)cc2)c1O` has an IC50 (PC-3) of over 20000 nM, an IC50 (ECa-109 cell line) of over 20 µM and an IC50 (DU-145) of over 20 µM. It also gave an IC50 (MGC-803) of over 20 µM, an IC50 (MCF7) of over 20 µM and an IC50 [1] of over 20 µM.

Work on `Cc1[nH]c2ccccc2c1CCNC(=O)c1ccc(NC(=S)N/N=C/c2ccc(C(=O)O)cn2)cc1` yielded an IC50 (PC-3) of 1600 nM, an IC50 (ECa-109 cell line) of 16.6 µM and an IC50 (DU-145) of 5.66 µM. It also gave an IC50 (MGC-803) of over 20 µM, an IC50 (MCF7) of over 20 µM and an IC50 [1] of 3.22 µM.

`Cc1ccc(/C=N/NC(=S)Nc2ccc(C(=O)NCCc3c[nH]c4ccc(Cl)cc34)cc2)nc1` showed an IC50 (PC-3) of 121 nM, an IC50 (ECa-109 cell line) of 2.4 µM and an IC50 (DU-145) of 0.925 µM. It also gave an IC50 (MGC-803) of 2.67 µM, an IC50 (MCF7) of 7.28 µM and an IC50 [1] of 7.09 µM.

With `COc1ccc(/C=N/NC(=S)Nc2ccc(C(=O)NCCc3c(C)[nH]c4ccccc34)cc2)nc1` the IC50 (PC-3) was 84 nM, the IC50 (ECa-109 cell line) was 5.49 µM and the IC50 (DU-145) was 4.08 µM. For the same compound, the IC50 (MGC-803) was 6.33 µM, the IC50 (MCF7) was 6.28 µM and the IC50 [1] was over 20 µM.

Compound `C/C(=N\Nc1ccc(C(=O)NCCc2c(C)[nH]c3ccccc23)cn1)c1ccccn1` has an IC50 (PC-3) of 406 nM, an IC50 (ECa-109 cell line) of 0.664 µM and an IC50 (DU-145) of 2.05 µM. It also gave an IC50 (MGC-803) of 4.22 µM, an IC50 (MCF7) of 0.871 µM and an IC50 [1] of 0.45 µM.

`Cc1[nH]c2ccccc2c1CCNC(=O)c1ccc(NC(=S)N/N=C/c2ccc(Br)cn2)cc1` showed an IC50 (PC-3) of 322 nM, an IC50 (ECa-109 cell line) of 13.9 µM and an IC50 (DU-145) of 1.9 µM. The IC50 (MGC-803) was over 20 µM, the IC50 (MCF7) was over 20 µM and the IC50 [1] was 1.78 µM.

`COc1ccc2[nH]cc(CCNC(=O)c3ccc(NC(=S)N/N=C/c4ccc(C)cn4)cc3)c2c1` showed an IC50 (PC-3) of 61 nM, an IC50 (ECa-109 cell line) of 5.75 µM and an IC50 (DU-145) of 3.22 µM. The IC50 (MGC-803) was 10.4 µM, the IC50 (MCF7) was 5.33 µM and the IC50 [1] was 18.1 µM.

With `Cc1[nH]c2ccccc2c1CCNC(=O)c1ccc(NC(=S)N/N=C/c2ccc(Cl)cn2)cc1` the IC50 (PC-3) was 454 nM, the IC50 (ECa-109 cell line) was 14.3 µM and the IC50 (DU-145) was 5.22 µM. It also gave an IC50 (MGC-803) of 11.1 µM, an IC50 (MCF7) of 10.2 µM and an IC50 [1] of 1.78 µM.

For `Cc1[nH]c2ccccc2c1CCNC(=O)c1ccc(NC(=S)N/N=C2/C(=O)Nc3ccccc32)cc1`, the IC50 (PC-3) was 17000 nM, the IC50 (ECa-109 cell line) was over 20 µM and the IC50 (DU-145) was 18.5 µM. It also gave an IC50 (MGC-803) of over 20 µM, an IC50 (MCF7) of over 20 µM and an IC50 [1] of over 20 µM.

`COc1ccc(/C=N/NC(=S)Nc2ccc(C(=O)NCCc3c[nH]c4ccc(OC)cc34)cc2)nc1` gave an IC50 (PC-3) of 93 nM, an IC50 (ECa-109 cell line) of 9.12 µM and an IC50 (DU-145) of 4.22 µM. It also gave an IC50 (MGC-803) of 8.92 µM, an IC50 (MCF7) of 1.96 µM and an IC50 [1] of over 20 µM.

In the case of `Cc1ccc(/C=N/NC(=S)NCCc2c[nH]c3ccccc23)nc1`, the IC50 (PC-3) is reported as 601 nM, the IC50 (ECa-109 cell line) is reported as 4.51 µM and the IC50 (DU-145) is reported as 3.13 µM. For the same compound, the IC50 (MGC-803) was 5.66 µM, the IC50 (MCF7) was 9.1 µM and the IC50 [1] was 2.33 µM.

With `Cc1ccc(/C=N/NC(=S)Nc2ccc(C(=O)NCCc3c[nH]c4ccc(C)cc34)cc2)nc1` the IC50 (PC-3) was 81 nM, the IC50 (ECa-109 cell line) was 1.63 µM and the IC50 (DU-145) was 1.06 µM. The IC50 (MGC-803) was 3.12 µM, the IC50 (MCF7) was 4.02 µM and the IC50 [1] was 10.9 µM.

In the case of `Cc1[nH]c2ccccc2c1CCNC(=O)c1ccc(NC(=S)N/N=C/c2ccccc2O)cc1`, the IC50 (PC-3) is reported as 5320 nM, the IC50 (ECa-109 cell line) is reported as 9.5 µM and the IC50 (DU-145) is reported as 14.5 µM. For the same compound, the IC50 (MGC-803) was over 20 µM, the IC50 (MCF7) was over 20 µM and the IC50 [1] was 2.87 µM.

`C/C(=N\NC(=S)Nc1ccc(C(=O)NCCc2c(C)[nH]c3ccccc23)cc1)c1ccccn1` showed an IC50 (PC-3) of 707 nM, an IC50 (ECa-109 cell line) of 6 µM and an IC50 (DU-145) of 4.02 µM. For the same compound, the IC50 (MGC-803) was 6.24 µM, the IC50 (MCF7) was 6.42 µM and the IC50 [1] was 3.55 µM.

Compound `Cc1[nH]c2ccccc2c1CCNC(=O)c1ccc(NC(=S)N/N=C/c2ccc(O)cn2)cc1` has an IC50 (PC-3) of 1500 nM, an IC50 (ECa-109 cell line) of 16.2 µM and an IC50 (DU-145) of 17 µM. The IC50 (MGC-803) was over 20 µM, the IC50 (MCF7) was over 20 µM and the IC50 [1] was over 20 µM.

For `Cc1ccc(/C=N/NC(=S)Nc2ccc(C(=O)NCCc3c[nH]c4ccccc34)cn2)nc1`, the IC50 (PC-3) was 512 nM, the IC50 (ECa-109 cell line) was 12.5 µM and the IC50 (DU-145) was 6.15 µM. The IC50 (MGC-803) was 7.59 µM, the IC50 (MCF7) was 8.32 µM and the IC50 [1] was 2.5 µM.

For `CN(C(=S)NN=C(c1ccccn1)c1ccccn1)C1CCCCC1`, the IC50 [1] was 0.711 µM.

`COc1ccc2[nH]cc(CCNC(=O)c3ccc(NC(=S)N/N=C/c4ccccn4)cc3)c2c1` gave an IC50 (PC-3) of 133 nM, an IC50 (ECa-109 cell line) of 5.03 µM and an IC50 (DU-145) of 4.13 µM. It also gave an IC50 (MGC-803) of 5.35 µM, an IC50 (MCF7) of 6.49 µM and an IC50 [1] of 12.3 µM.

Work on `Cc1ccc(/C=N/NC(=S)NC2CCC(C(=O)NCCc3c[nH]c4ccccc34)CC2)nc1` (stereo unspecified) yielded an IC50 (PC-3) of 2220 nM, an IC50 (ECa-109 cell line) of 14.1 µM and an IC50 (DU-145) of 2.22 µM. For the same compound, the IC50 (MGC-803) was 4.58 µM, the IC50 (MCF7) was 8.13 µM and the IC50 [1] was 1.56 µM.

`Cc1[nH]c2ccccc2c1CCNC(=O)c1ccc(C(=O)NO)cc1` gave an IC50 (PC-3) of over 20000 nM, an IC50 (ECa-109 cell line) of over 20 µM and an IC50 (DU-145) of over 20 µM. The IC50 (MGC-803) was over 20 µM, the IC50 (MCF7) was over 20 µM and the IC50 [1] was over 20 µM.

Work on `Cc1[nH]c2ccccc2c1CCNC(=O)c1ccc(NC(=S)N/N=C/c2ccccn2)cc1` yielded an IC50 (PC-3) of 91 nM, an IC50 (ECa-109 cell line) of 3.46 µM and an IC50 (DU-145) of 3.63 µM. For the same compound, the IC50 (MGC-803) was 8.64 µM, the IC50 (MCF7) was 10.3 µM and the IC50 [1] was 13.1 µM.
